In US20180000085A1, “USE OF PICOLINAMIDE COMPOUNDS WITH FUNGICIDAL ACTIVITY” (DOW AGROSCIENCES LLC, priority 2014, published 2018):

What was measured:
Puccinia triticina = experiment: Wheat brown rust (PUCCRT) disease control on wheat seedlings; format: in vivo; set-up: key to PUCCRT 3DC, HV activity at 100 ppm (% control rating) / PUCCRT disease control, 3DC / PUCCRT 1DP disease control rating, HV activity / PUCCRT 3DC disease control rating, HV activity / PUCCRT 3DC, LV activity at 125.1 g/H (% Control rating) / PUCCRT 1DP, LV activity at 125.1 g/H (% Control rating) / PUCCRT 3DC disease control rating, LV activity at 125.1 g/H / PUCCRT 1DP disease control rating, LV activity at 125.1 g/H / PUCCRT 3DC disease control rating, HV activity at 100 ppm / PUCCRT 1DP disease control rating, HV activity at 100 ppm / HV activity at 100 ppm PUCCRT 3DC (disease control rating) / LV activity at 125.1 g/H PUCCRT 1DP (disease control rating) / LV activity at 125.1 g/H PUCCRT 3DC (disease control rating): A: > 80; B: ≤ 80; C: Not Tested; D: No Activity Observed in the Reported Assay; conditions: for PUCCRT 1DP disease control rating, HV activity at 100 ppm / PUCCRT 3DC disease control rating, HV activity at 100 ppm: high volume application; for PUCCRT 1DP disease control rating, HV activity at 100 ppm / PUCCRT 1DP disease control rating, LV activity at 125.1 g/H: 1 day protectant; for PUCCRT 3DC disease control rating, HV activity at 100 ppm / PUCCRT 3DC disease control rating, LV activity at 125.1 g/H: 3 day curative; for PUCCRT 1DP disease control rating, LV activity at 125.1 g/H / PUCCRT 3DC disease control rating, LV activity at 125.1 g/H: low volume application
Zymoseptoria tritici = experiment: Leaf blotch of wheat (SEPTTR) disease control on wheat seedlings; format: in vivo; set-up: key to SEPTTR 1DP, HV activity at 100 ppm (% control rating) / SEPTTR 3DC, HV activity at 100 ppm (% control rating) / SEPTTR disease control, 1DP / SEPTTR disease control, 3DC / SEPTTR 1DP disease control rating, HV activity / SEPTTR 3DC disease control rating, HV activity / SEPTTR 3DC, LV activity at 125.1 g/H (% Control rating) / SEPTTR 1DP, LV activity at 125.1 g/H (% Control rating) / SEPTTR 1DP disease control rating, LV activity at 125.1 g/H / SEPTTR 3DC disease control rating, LV activity at 125.1 g/H / SEPTTR 3DC disease control rating, HV activity at 100 ppm / SEPTTR 1DP disease control rating, HV activity at 100 ppm / HV activity at 100 ppm SEPTTR 3DC (disease control rating) / HV activity at 100 ppm SEPTTR 1DP (disease control rating) / LV activity at 125.1 g/H SEPTTR 1DP (disease control rating) / LV activity at 125.1 g/H SEPTTR 3DC (disease control rating): A: > 80; B: ≤ 80; C: Not Tested; D: No Activity Observed in the Reported Assay; conditions: for SEPTTR 1DP disease control rating, HV activity at 100 ppm / SEPTTR 3DC disease control rating, HV activity at 100 ppm: high volume application; for SEPTTR 1DP disease control rating, HV activity at 100 ppm / SEPTTR 1DP disease control rating, LV activity at 125.1 g/H: 1 day protectant; for SEPTTR 3DC disease control rating, HV activity at 100 ppm / SEPTTR 3DC disease control rating, LV activity at 125.1 g/H: 3 day curative; for SEPTTR 1DP disease control rating, LV activity at 125.1 g/H / SEPTTR 3DC disease control rating, LV activity at 125.1 g/H: low volume application

Row | Compound | PUCCRT 1DP disease control rating, HV activity at 100 ppm (Puccinia triticina) | PUCCRT 3DC disease control rating, HV activity at 100 ppm (Puccinia triticina) | SEPTTR 1DP disease control rating, HV activity at 100 ppm (Zymoseptoria tritici) | SEPTTR 3DC disease control rating, HV activity at 100 ppm (Zymoseptoria tritici) | PUCCRT 1DP disease control rating, LV activity at 125.1 g/H (Puccinia triticina) | PUCCRT 3DC disease control rating, LV activity at 125.1 g/H (Puccinia triticina) | SEPTTR 1DP disease control rating, LV activity at 125.1 g/H (Zymoseptoria tritici) | SEPTTR 3DC disease control rating, LV activity at 125.1 g/H (Zymoseptoria tritici)
1 | COc1ccnc(C(=O)N[C@@H](C)C(=O)O[C@@H](C)[C@H](OCC2CC2)C2CCCC2)c1O [Cmpd 845, (S)-(1R,2S)-1-cyclopentyl-1-(cyclopropyl-methoxy)propan-2-yl-2-(3-hydroxy-4-methoxypicolinamido)propanoate] | A (> 80) | A (> 80) | B (≤ 80) | B (≤ 80) |  |  |  | 
2 | COc1ccnc(C(=O)N[C@@H](C)C(=O)O[C@@H](C)[C@H](Oc2ccc(C)cc2)C2CCCC2)c1O [Cmpd 846, (S)-(1R,2S)-1-cyclopentyl-1-(p-tolyloxy)propan-2-yl-2-(3-hydroxy-4-methoxypicolinamido)propanoate] | A (> 80) | A (> 80) | B (≤ 80) | B (≤ 80) |  |  |  | 
3 | COc1cccc(O[C@H](C2CCCC2)[C@H](C)OC(=O)[C@H](C)NC(=O)c2nccc(OC)c2O)c1 [Cmpd 847] | A (> 80) | A (> 80) | B (≤ 80) | A (> 80) |  |  |  | 
4 | COc1ccnc(C(=O)N[C@@H](C)C(=O)O[C@@H](C)[C@H](Oc2ccccc2)c2ccc(F)cc2)c1O [Cmpd 848] | A (> 80) | B (≤ 80) | B (≤ 80) | A (> 80) |  |  |  | 
5 | COc1ccnc(C(=O)N[C@@H](C)C(=O)O[C@@H](C)[C@@H](Oc2ccccc2)c2cccnc2)c1OC(C)=O [Cmpd 849] |  |  |  |  | D | B (≤ 80) | D | B (≤ 80)
6 | CCCO[C@@H](C(C)C)[C@H](C)OC(=O)[C@H](C)NC(=O)c1nccc(OC)c1OCOC(C)=O [Cmpd 850] |  |  |  |  | B (≤ 80) | A (> 80) | D | B (≤ 80)
7 | COc1ccnc(C(=O)N[C@@H](C)C(=O)O[C@@H](C)[C@@H](OC(=O)c2ccccc2)C(C)C)c1OCOC(C)=O [Cmpd 851] |  |  |  |  | B (≤ 80) | B (≤ 80) | D | D
8 | COc1ccnc(C(=O)N[C@@H](C)C(=O)O[C@@H](C)[C@@H](Oc2cccc(Cl)c2)C(C)C)c1OCOC(C)=O [Cmpd 852] |  |  |  |  | A (> 80) | A (> 80) | B (≤ 80) | A (> 80)
9 | COc1ccnc(C(=O)N[C@@H](C)C(=O)O[C@@H](C)[C@@H](Oc2cccc(C(F)(F)F)c2)C(C)C)c1OCOC(C)=O [Cmpd 853] |  |  |  |  | A (> 80) | A (> 80) | B (≤ 80) | A (> 80)
10 | COc1ccnc(C(=O)N[C@@H](C)C(=O)O[C@@H](C)[C@@H](Oc2cccc3ccccc23)C(C)C)c1OCOC(C)=O [Cmpd 854] |  |  |  |  | A (> 80) | B (≤ 80) | B (≤ 80) | A (> 80)
11 | CCCO[C@@H](C(C)C)[C@H](C)OC(=O)[C@H](C)NC(=O)c1nccc(OC)c1OC(C)=O [Cmpd 855] |  |  |  |  | B (≤ 80) | B (≤ 80) | D | D
12 | COc1ccnc(C(=O)N[C@@H](C)C(=O)O[C@@H](C)[C@@H](OC(=O)c2ccccc2)C(C)C)c1OC(C)=O [Cmpd 856] |  |  |  |  | B (≤ 80) | B (≤ 80) | D | D
13 | COc1ccnc(C(=O)NC(C)C(=O)OC(C)C(Oc2cccc(Cl)c2)C(C)C)c1OC(C)=O (stereo not drawn) [Cmpd 857] |  |  |  |  | A (> 80) | A (> 80) | B (≤ 80) | B (≤ 80)
14 | COc1ccnc(C(=O)NC(C)C(=O)OC(C)C(Oc2cccc(C(F)(F)F)c2)C(C)C)c1OC(C)=O (stereo not drawn) [Cmpd 858] |  |  |  |  | A (> 80) | A (> 80) | B (≤ 80) | A (> 80)
15 | COc1ccnc(C(=O)NC(C)C(=O)OC(C)C(Oc2cccc3ccccc23)C(C)C)c1OC(C)=O (stereo not drawn) [Cmpd 859] |  |  |  |  | A (> 80) | B (≤ 80) | B (≤ 80) | D
16 | COc1ccnc(C(=O)NCC(=O)OC(C)C(Oc2ccccc2)C(C)C)c1OCOC(C)=O (stereo not drawn) [Cmpd 862] |  |  |  |  | A (> 80) | A (> 80) | D | D
17 | COc1ccnc(C(=O)NC(Cc2ccccc2)C(=O)OC(C)C(Oc2ccccc2)C(C)C)c1OCOC(C)=O (stereo not drawn) [Cmpd 865] |  |  |  |  | A (> 80) | A (> 80) | B (≤ 80) | B (≤ 80)
18 | COc1ccnc(C(=O)NC(C)C(=O)OC(C)C(Oc2ccc(Cl)cc2Cl)c2ccccc2)c1OC(C)=O (stereo not drawn) [Cmpd 867] |  |  |  |  | A (> 80) | B (≤ 80) | A (> 80) | A (> 80)
19 | COc1ccnc(C(=O)NC(C)C(=O)OC(C)C(Oc2ccc(Cl)cc2Cl)c2ccccc2)c1OC(=O)C(C)C (stereo not drawn) [Cmpd 868] |  |  |  |  | B (≤ 80) | B (≤ 80) | B (≤ 80) | B (≤ 80)
20 | COc1ccnc(C(=O)NC(C)C(=O)OC(C)C(Oc2ccc(Cl)cc2Cl)c2ccccc2)c1OCOC(C)=O (stereo not drawn) [Cmpd 869] |  |  |  |  | A (> 80) | B (≤ 80) | A (> 80) | A (> 80)
21 | COc1ccnc(C(=O)NC(C)C(=O)OC(C)C(Oc2ccccc2)c2ccccc2)c1OC(C)=O (stereo not drawn) [Cmpd 870] |  |  |  |  | A (> 80) | B (≤ 80) | A (> 80) | A (> 80)
22 | COc1ccnc(C(=O)NC(C)C(=O)OC(C)C(Oc2ccccc2)c2ccccc2)c1OC(=O)C(C)C (stereo not drawn) [Cmpd 871] |  |  |  |  | D | D | A (> 80) | B (≤ 80)
23 | COc1ccnc(C(=O)NC(C)C(=O)OC(C)C(Oc2ccccc2)c2ccccc2)c1OCOC(C)=O (stereo not drawn) [Cmpd 872] |  |  |  |  | A (> 80) | A (> 80) | A (> 80) | A (> 80)
24 | COc1ccnc(C(=O)N[C@@H](C)C(=O)O[C@@H](C)[C@H](Oc2cccc(F)c2)c2cccc(-c3ccccc3)c2)c1OCOC(C)=O [Cmpd 874] |  |  |  |  | A (> 80) | B (≤ 80) | A (> 80) | B (≤ 80)
